# In paper PMC7391726, “Fatty acid mimetic PBI-4547 restores metabolic homeostasis via GPR84 in mice with non-alcoholic fatty liver disease” (Scientific Reports, 2020):
# Where two headings read alike, the source gives them in different places.
# Columns and labels:
# GPR84 = target: T1, GPR84 (Homo sapiens, UniProt Q9NQS5); test: BRET Gαi2 activation biosensor in HEK293 cells transfected with GPR84; assay type: cell-based; conditions: compound alone vs vehicle
# T1 construct: expressed in transfected cells; host or cells: HEK293
# T1 sequence (Q9NQS5 whole entry, species assumed): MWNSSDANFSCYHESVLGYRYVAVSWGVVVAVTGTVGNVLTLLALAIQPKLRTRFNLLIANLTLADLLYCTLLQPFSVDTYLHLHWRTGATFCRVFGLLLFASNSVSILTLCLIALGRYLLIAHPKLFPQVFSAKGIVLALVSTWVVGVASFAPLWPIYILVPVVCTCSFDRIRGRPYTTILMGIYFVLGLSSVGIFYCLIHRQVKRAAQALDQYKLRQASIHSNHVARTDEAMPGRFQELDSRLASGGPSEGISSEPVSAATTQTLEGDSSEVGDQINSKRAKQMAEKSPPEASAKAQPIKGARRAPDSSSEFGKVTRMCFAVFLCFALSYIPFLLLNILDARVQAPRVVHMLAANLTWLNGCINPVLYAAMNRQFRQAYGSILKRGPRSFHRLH
# Description: PBI-4547 (2-[3,5-dipentylphenyl]acetate sodium salt) is a medium-chain FA (MCFA) mimetic (Fig. 1A). Accordingly, we examined the signaling properties of PBI-4547 on receptors known to be activated by MCFAs. […] This biosensor consisted of an Rluc8-tagged Gαi2 subunit, a GFP10-tagged Gγ2 subunit, and an untagged Gβ1. Agonist stimulation and receptor activation triggers a physical separation between the Gα-Rluc8 donor and the GFP10-Gγ2 acceptor, resulting in a decrease in BRET signal, whose amplitude is correlated to ligand efficacy. […] (A) Chemical structure of PBI-4547. (B) Gi pathway activation was monitored in HEK293 cells transfected with GPR84 and the Gαi2 activation biosensor. […] (C) β-arrestin 2 recruitment to activated GPR120 receptor was monitored in HEK293 cells transfected with RLuc8-β-arrestin 2 and GPR120-GFP10. (D) Cells transfected with GPR40 and Gαq or Gαi2 activation biosensor were exposed to increasing concentrations of PBI-4547 or to 500 µM of sodium decanoate, and BRET variation compared with vehicle was measured. Cells were exposed to increasing concentrations of PBI-4547 or to 100 µM of GW9508, and BRET variation compared with vehicle was measured. (E) LanthaScreen TR-FRET competitive binding assay of PBI-4547 and PPAR control agonists to the LBD of PPARα, PPARδ and PPARγ. (F) Cell-based GAL4 transactivation assay in HEK293 cells transfected with the LBD of PPARα, PPARδ or PPARγ, and treated with increasing concentrations of PBI-4547 or PPAR control agonists. Data in (B–D) are expressed as means ± SEM of 4–5 experiments; data in (E,F) are from a representative experiment from a total of 3 to 4 independent experiments. BRET measurements in transiently transfected HEK293 cells were performed as previously described. Ligands were incubated with cells at room temperature for 10 min (G protein biosensors) or 25 min (β-arrestin/GPR120) before collecting BRET[2] readings between Rluc8 and GFP10.
# GPR40 = target: T2, GPR40 (Homo sapiens, UniProt O14842); design: method as in PMID 29454750; conditions: previously reported, cited from earlier work
# T2 construct: expressed in transfected cells; host or cells: HEK293
# T2 sequence (O14842 whole entry, species assumed): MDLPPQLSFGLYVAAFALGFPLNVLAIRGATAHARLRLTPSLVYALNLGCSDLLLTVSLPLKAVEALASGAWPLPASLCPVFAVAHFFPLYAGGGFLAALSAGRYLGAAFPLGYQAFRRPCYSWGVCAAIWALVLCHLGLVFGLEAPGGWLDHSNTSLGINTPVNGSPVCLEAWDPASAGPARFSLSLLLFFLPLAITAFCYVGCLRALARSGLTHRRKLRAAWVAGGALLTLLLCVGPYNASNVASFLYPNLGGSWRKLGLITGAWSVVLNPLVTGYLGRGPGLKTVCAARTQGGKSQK
# ob/ob mice = test: ob/ob leptin-deficient genetic mouse model of metabolic syndrome; assay type: in vivo
# Description: We next sought to confirm our above findings obtained from the diet-induced model of obesity by using the ob/ob leptin-deficient genetic mouse model of metabolic syndrome. […] Additionally, the mRNA expression profiles of glucose- and FA-related genes in liver (Fig. S4D,E) and WAT (Fig. S5) also differed between pioglitazone- and PBI-4547-treated mice.
GPR84/Gαi2-mediated BRET signal modulation (agonist mode) (GPR84),Compound,"EC50 (GPR40; Gαi2, read-out: EC50, GPR40 Gαi2) [µM]","EC50 (GPR40; Gαq, read-out: EC50, GPR40 Gαq) [µM]",bodyweight (ob/ob mice)
induced a BRET signal decrease,CCCCCCCCCC(=O)[O-].[Na+] [sodium decanoate],16,102,–
–,"CCc1ccc(CCOc2ccc(CC3SC(=O)NC3=O)cc2)nc1 (stereo not shown) [pioglitazone, reference compound]",–,–,increased trend towards weight gain
